Measurements from PMC5603853, “Physicochemical, Stress Degradation Evaluation and Pharmacokinetic Study of AZGH102, a New Synthesized COX2 Inhibitors after I.V. and Oral Administration in Male and Female Rats” (Iranian Journal of Pharmaceutical Research : IJPR, 2017).
In brackets after ≈: the same amount, converted by molar mass. Like-named read-outs stand apart in the source and are kept apart here.

How the values were obtained:
[1] = Octanol/water partition coefficient (OECD Guideline No. 107); assay type: physicochemical; conditions: 3 replications, read-out: log P (logarithm of octanol/water partition coefficient)
Protocol: (§1) Melting point was determined with an Electrothermal 9200 apparatus (UK). Moreover, aqueous solubility and octanol/water partition coefficient of the synthesized derivative was determined according to Organisation for Economic Co-operation and Development (OECD) Guideline for Testing of Chemicals, No.105 and No. 107, respectively ([6]-[8]).

[2] = Aqueous solubility (OECD Guideline No. 105); assay type: physicochemical; conditions: thermodynamic from solid; water; 3 replications
Protocol: as §1

[3] = Pharmacokinetic study after intravenous administration; assay type: in vivo; conditions: intravenous 10 mg/Kg; for AUC(0-inf) / C0 / Vd / clearance / half-life / k el: rat, plasma; for half-life: read-out: t1/2 β (converted); for k el: read-out: β (elimination rate constant) (converted)
Protocol: (§2) Male and female Wistar rats weighting 250 ± 10 g were used. They were housed in animal center of author’s institute. Each rat was housed in a cage which was kept at 25 ± 1 °C temperature and controlled humidity with 12 h light/dark cycle. Animals were fasted overnight before the experiment and had free access to water. The study protocol was approved by the local ethics committee for animal experiments of Shahid Beheshti University of Medical Sciences (Tehran, Iran).
(§3) The rats (12 male and 12 female) were randomly divided into four groups (6 rats/group) and assigned to receive AZGH 102 solution via intravenous (IV) and/or oral administration. The administered doses in both male and female groups for IV and oral studies were 10 mg/Kg and 20 mg/Kg, respectively. Blood samples were collected from the tail vein immediately prior to (blank sample) and at 0.08, 0.25, 0.5, 1, 2, 4, 6, 8, 10, 21 and 22 h after drug administration into heparinized micro-tubes. Blood samples were centrifuged at 1000 g for 10 min and the separated plasma samples were kept at – 20 °C until analysis.
(§4) Two-compartmental model was selected and pharmacokinetic analyses were performed using WinNonlin software (Pharsight Corporation, Mountain View, USA, Version 3.2). The following pharmacokinetic parameters were estimated: terminal elimination half-life (t1/2), area under the plasma concentration versus time curve from zero to the infinity (AUC 0-∞), distribution and elimination rate constants (α, β), y intercepts (A, B), volume of distribution (Vd), and total body clearance (CL). The peak plasma concentration (Cmax) and the time to reach Cmax (Tmax) for oral dose were obtained directly from the observed individual plasma concentration-time data.

[4] = Pharmacokinetic study after oral administration; assay type: in vivo; conditions: for Cl / Ka / Vd / α (distribution rate constant) / AUC(0-inf) / Cmax / Tmax / half-life / k el: oral 20 mg/Kg; for bioavailability / AUC(0-inf) / Cmax / Tmax / half-life / k el: rat, plasma; for bioavailability: oral 20 mg/Kg vs IV 10 mg/Kg, read-out: F (absolute bioavailability); for half-life: read-out: t1/2 β (converted); for k el: read-out: β (elimination rate constant) (converted)
Protocol: as §2, §3, §4

[5] = system: COX-2; conditions: in comparison with celecoxib; cited from earlier work
[6] = Forced degradation stability study (ICH guideline); assay type: physicochemical; design: Forced tests results, Mean ±SD: unit not given here; conditions: for Forced tests results, Mean ±SD: n=3
Protocol: The stability study was conducted according to forced degradation protocol ICH guideline for new drug substance ([9]-[11]). The study evaluated the stability of AZGH 102 at acidic, basic, and neutral medium. Moreover, the effect of oxidative condition (H2O2, 3 and 30%), thermal degradation at solid state and photolysis on the stability of AZGH 102 was evaluated.

logP [1]: 3.75 ± 0.001
solubility [2]: 2.7 ± 0.09 µg/mL (≈ 6.26 µM)
α (distribution rate constant) ([3]; female Wistar rats): 3.87 ± 1.11 h⁻¹
α (distribution rate constant) ([3]; male Wistar rats): 2.98 ± 0.67 h⁻¹
AUC(0-inf) ([3]; female Wistar rats): 85800 ± 9230 ng·h/mL
C0 ([3]; female Wistar rats): 100 ± 14.1 µg/mL
Vd ([3]; female Wistar rats): 0.101 ± 0.0137 L
clearance ([3]; female Wistar rats): 0.491 mL/min
half-life ([3]; female Wistar rats): 2.38 ± 0.12 h
k el ([3]; female Wistar rats): 0.00015 s⁻¹
AUC(0-inf) ([3]; male Wistar rats): 91300 ± 17100 ng·h/mL
C0 ([3]; male Wistar rats): 113 ± 7.99 µg/mL
Vd ([3]; male Wistar rats): 0.0997 ± 0.0152 L
clearance ([3]; male Wistar rats): 0.47 mL/min
half-life ([3]; male Wistar rats): 2.23 ± 0.74 h
k el ([3]; male Wistar rats): 8.06e-05 s⁻¹
Cl ([4]; female Wistar rats): 29.15 ± 0.47 mL/h
Ka ([4]; female Wistar rats): 1.26 ± 0.34 h⁻¹
Vd ([4]; female Wistar rats): 156.27 ± 4.54 mL
α (distribution rate constant) ([4]; female Wistar rats): 3.70 ± 1.56 h⁻¹
Cl ([4]; male Wistar rats): 27.47 ± 1.81 mL/h
Ka ([4]; male Wistar rats): 0.69 ± 0.15 h⁻¹
Vd ([4]; male Wistar rats): 147.04 ± 9.43 mL
α (distribution rate constant) ([4]; male Wistar rats): 5.79 ± 2.33 h⁻¹
bioavailability ([4]; female Wistar rats): 25.6 ± 0.4%
bioavailability ([4]; male Wistar rats): 27 ± 1.85%
AUC(0-inf) ([4]; female Wistar rats): 43900 ± 710 ng·h/mL
Cmax ([4]; female Wistar rats): 16.5 ± 1.05 µg/mL
Tmax ([4]; female Wistar rats): 0.5 h
half-life ([4]; female Wistar rats): 3.72 ± 0.1 h
k el ([4]; female Wistar rats): 5.28e-05 s⁻¹
AUC(0-inf) ([4]; male Wistar rats): 49300 ± 3380 ng·h/mL
Cmax ([4]; male Wistar rats): 19.6 ± 1.96 µg/mL
Tmax ([4]; male Wistar rats): 0.5 h
half-life ([4]; male Wistar rats): 3.71 ± 0.16 h
k el ([4]; male Wistar rats): 5.28e-05 s⁻¹
Forced tests results, Mean ±SD ([6]; Hydrolysis (Acid), fraction recovered intact): 0.94±0.02
Forced tests results, Mean ±SD ([6]; Hydrolysis (Base)): 0.92±0.01
Forced tests results, Mean ±SD ([6]; Hydrolysis (Buffer pH=7)): 0.95±0.04
Forced tests results, Mean ±SD ([6]; Oxidative stress (H2O2-3%)): 0.94±0.02
Forced tests results, Mean ±SD ([6]; Oxidative stress (H2O2-30%)): 0.90±0.04
Forced tests results, Mean ±SD ([6]; Photodegradation (Acid)): 0.93±0.02
Forced tests results, Mean ±SD ([6]; Photodegradation (Base)): 0.96±0.04
Forced tests results, Mean ±SD ([6]; Photodegradation (Buffer pH=7)): 0.93±0.02
Forced tests results, Mean ±SD ([6]; Thermal Degradation (solid phase)): 0.95±0.03
recovered intact ([6]; in all of the examined stress conditions): more than 90%
SMILES: CS(=O)(=O)c1ccc(-c2cc(C(=O)O)c3cccc(C(=O)c4ccccc4)c3n2)cc1 [AZGH 102, 8-benzoyl-2-(4-(methylsulfonyl)phenyl)quinoline-4-carboxylic acid]
selectivity index (COX-1/COX-2 inhibitory potency) [5]: improved selectivity index
